Assay results reported in PubChem BioAssay AID2060351 (Molecular Pharmacology Branch, DTP, NCI, 2025).
pIC50: −log10 of the molar value.

System: 521955-158-R7-J2-PDC spheroids, viability % test/control
Test: Anticancer human tumor 521955-158-R7-J2-PDC patient-derived pancreatic carcinoma cell line growth inhibition [TAK]
Conditions: spheroids with HUVEC and MSC; for pIC50: curve of first compound; for viability, T/C: stronger effect = lower value
Excerpt: Combinatorial screen of targeted agents with TAK-243 and ipatasertib in multi-cell type tumor spheroids
A high-throughput screen of multi-cell type tumor spheroids was designed to identify active combinations of targeted small molecules and TAK-243 or ipatasertib. Complex spheroids include a stromal component modeled by human endothelial cells (HUVEC) and fibroblasts modeled by human mesenchymal stem cells (MSCs). The concentration ranges selected for each drug and investigational agent were based upon clinically achievable concentrations if the clinical Cmax of the agent was known.
Compounds. The drugs and investigational agents: TAK-243 (785004), ipatasertib (767898), everolimus (733504), selumetinib (741078), bortezomib (756655), trametinib (758246), ixazomib (758254), vemurafenib (761431), dabrafenib (764134), sapanisertib (764658), alpelisib (765974), and copanlisib (816437), were obtained from the National Cancer Institute (NCI) Developmental Therapeutics Program Chemical Repository. The FDA-approved anticancer drug set is available from the NCI Developmental Therapeutics Program. […] The stock solutions were prepared in dimethyl sulfoxide (DMSO, Sigma-Aldrich, St. Louis, MO, cat. D2650) at 800-fold the tested concentration and stored at -70 degrees C prior to their use. All drugs and investigational agents were tested over a range starting from a high concentration at or near the clinical Cmax and decreasing in half-log increments. If the clinical Cmax for an agent had not been determined, the highest concentration tested was 10 microM.
NCI60 Cell Culture. NCI60 cell lines were obtained from the NCI Developmental Therapeutics Program Tumor Repository. For each lot of cells, the Repository performed Applied Biosystems AmpFLSTR Identifiler testing with PCR amplification to confirm consistency with the published Identifier STR profile for each cell line. Cells were kept in continuous culture for no more than 20 passages. The optimal seeding densities for each of the cell lines at each time point assessed were determined prior to performing the concentration response studies. Briefly, the NCI60 human tumor lines were grown as monolayers in RPMI 1640 medium supplemented with 10% FBS and 2 mmol/L L-glutamine.
An additional 2 lines were from the NCI60 cell line panel including melanomas, MALME-3M and SK-MEL-2. Pooled donor human umbilical vein endothelial cells (HUVEC, Lonza, cat. CC-2519) and human mesenchymal stem cells (hMSC, Lonza, cat. PT-2501) were purchased from Lonza (Walkersville, MD).
PDMR cell lines were grown in complete medium (DC medium): Dulbecco's modified Eagle's medium (DMEM)/F12 supplemented with 5% fetal bovine serum (FBS), 2 mM L-glutamine, 100 U/mL penicillin and 100 µg/ml streptomycin, 0.4 µg/ml hydrocortisone, 10 ng/ml epidermal growth factor (EGF) recombinant human protein, 24 µg/mL adenine, and 0.1 mg/mL primocin. During culture from frozen stock vials, PDMR cells were cultured in the same medium containing 10 µM Y-27632 (see Table 3). The PDCs were cultured in complete DMEM/F12 media without 10 microM Y-27632 dihydrochloride for at least two passages prior to the screen. The pooled donor HUVEC and hMSC were cultured in endothelial cell growth medium 2 (PromoCell, Heidelberg, Germany, cat. C-22011) and mesenchymal stem cell growth medium 2 (PromoCell, cat. C-28009), respectively. For all experiments, HUVEC and hMSC were used at passages </=5.
For the pre-screen, cell seeding densities were determined from a titration spanning the range from 5,000 to 313 cells per well. The mct-spheroids including 60% malignant cells, 25% HUVEC and 15% MSC dispensed as a mixture into U-bottom Ultra-Low Attachment 384-well plates (Corning, NY)
High-throughput Drug Combination Screening.
Prior to their inoculation into 384-well plates, malignant cells, HUVEC, and hMSC were removed from T flasks using TrypLE express (Thermo Fisher Scientific, cat. 12605036) and harvested by centrifugation for 5 min at 233 x g. […]
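Note: spheroids exposed to compound for 7 days before readout.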

CC(=O)Nc1cccc(-n2c(=O)n(C3CC3)c(=O)c3c(Nc4ccc(I)cc4F)n(C)c(=O)c(C)c32)c1 + CC(C)NCC(C(=O)N1CCN(c2ncnc3c2C(C)CC3O)CC1)c1ccc(Cl)cc1
pIC50 (second compound 0.3 µM): 8.87
pIC50 (second compound 0.949 µM): 8.85
pIC50 (second compound 3 µM): 9.10
pIC50 (second compound 9.49 µM): 9.12
pIC50 (second compound 30 µM): 9.10
viability, T/C (second compound 0.3 µM, first compound 94.9 pM): 98.9%
viability, T/C (second compound 0.3 µM, first compound 0.0003 µM): 79.8%
viability, T/C (second compound 0.3 µM, first compound 0.000949 µM): 51.1%
viability, T/C (second compound 0.3 µM, first compound 0.003 µM): 39.4%
viability, T/C (second compound 0.3 µM, first compound 0.00949 µM): 23.8%
viability, T/C (second compound 0.3 µM, first compound 0.03 µM): 11.7%
viability, T/C (second compound 0.949 µM, first compound 94.9 pM): 106%
viability, T/C (second compound 0.949 µM, first compound 0.0003 µM): 83.6%
viability, T/C (second compound 0.949 µM, first compound 0.000949 µM): 50.4%
viability, T/C (second compound 0.949 µM, first compound 0.003 µM): 39.7%
viability, T/C (second compound 0.949 µM, first compound 0.00949 µM): 24.9%
viability, T/C (second compound 0.949 µM, first compound 0.03 µM): 10.5%
viability, T/C (second compound 3 µM, first compound 94.9 pM): 99.6%
viability, T/C (second compound 3 µM, first compound 0.0003 µM): 61.7%
viability, T/C (second compound 3 µM, first compound 0.000949 µM): 50.2%
viability, T/C (second compound 3 µM, first compound 0.003 µM): 31.8%
viability, T/C (second compound 3 µM, first compound 0.00949 µM): 23%
viability, T/C (second compound 3 µM, first compound 0.03 µM): 8.8%
viability, T/C (second compound 9.49 µM, first compound 94.9 pM): 82.7%
viability, T/C (second compound 9.49 µM, first compound 0.0003 µM): 68.7%
viability, T/C (second compound 9.49 µM, first compound 0.000949 µM): 40.3%
viability, T/C (second compound 9.49 µM, first compound 0.003 µM): 32.1%
viability, T/C (second compound 9.49 µM, first compound 0.00949 µM): 25%
viability, T/C (second compound 9.49 µM, first compound 0.03 µM): 7.94%
viability, T/C (second compound 30 µM, first compound 94.9 pM): 93.1%
viability, T/C (second compound 30 µM, first compound 0.0003 µM): 61.4%
viability, T/C (second compound 30 µM, first compound 0.000949 µM): 44.3%
viability, T/C (second compound 30 µM, first compound 0.003 µM): 35.5%
viability, T/C (second compound 30 µM, first compound 0.00949 µM): 20.4%
viability, T/C (second compound 30 µM, first compound 0.03 µM): 4.94%

CC(C)CC(NC(=O)C(Cc1ccccc1)NC(=O)c1cnccn1)B(O)O (stereo not given) + CC(C)NCC(C(=O)N1CCN(c2ncnc3c2C(C)CC3O)CC1)c1ccc(Cl)cc1
pIC50 (second compound 0.3 µM): 8.25
pIC50 (second compound 0.949 µM): 8.27
pIC50 (second compound 3 µM): 8.25
pIC50 (second compound 9.49 µM): 8.28
pIC50 (second compound 30 µM): 8.29
viability, T/C (second compound 0.3 µM, first compound 31.6 pM): 113%
viability, T/C (second compound 0.3 µM, first compound 0.0001 µM): 87.5%
viability, T/C (second compound 0.3 µM, first compound 0.000316 µM): 92%
viability, T/C (second compound 0.3 µM, first compound 0.001 µM): 104%
viability, T/C (second compound 0.3 µM, first compound 0.00316 µM): 92.7%
viability, T/C (second compound 0.3 µM, first compound 0.01 µM): 6.67%
viability, T/C (second compound 0.949 µM, first compound 31.6 pM): 94.7%
viability, T/C (second compound 0.949 µM, first compound 0.0001 µM): 82.4%
viability, T/C (second compound 0.949 µM, first compound 0.000316 µM): 77.3%
viability, T/C (second compound 0.949 µM, first compound 0.001 µM): 82.8%
viability, T/C (second compound 0.949 µM, first compound 0.00316 µM): 92.2%
viability, T/C (second compound 0.949 µM, first compound 0.01 µM): 8.18%
viability, T/C (second compound 3 µM, first compound 31.6 pM): 93.4%
viability, T/C (second compound 3 µM, first compound 0.0001 µM): 101%
viability, T/C (second compound 3 µM, first compound 0.000316 µM): 86.6%
viability, T/C (second compound 3 µM, first compound 0.001 µM): 84.9%
viability, T/C (second compound 3 µM, first compound 0.00316 µM): 93.1%
viability, T/C (second compound 3 µM, first compound 0.01 µM): 7.99%
viability, T/C (second compound 9.49 µM, first compound 31.6 pM): 92.7%
viability, T/C (second compound 9.49 µM, first compound 0.0001 µM): 95.9%
viability, T/C (second compound 9.49 µM, first compound 0.000316 µM): 68.7%
viability, T/C (second compound 9.49 µM, first compound 0.001 µM): 80%
viability, T/C (second compound 9.49 µM, first compound 0.00316 µM): 82.7%
viability, T/C (second compound 9.49 µM, first compound 0.01 µM): 7.48%
viability, T/C (second compound 30 µM, first compound 31.6 pM): 86.8%
viability, T/C (second compound 30 µM, first compound 0.0001 µM): 83.7%
viability, T/C (second compound 30 µM, first compound 0.000316 µM): 75.4%
viability, T/C (second compound 30 µM, first compound 0.001 µM): 78%
viability, T/C (second compound 30 µM, first compound 0.00316 µM): 84.1%
viability, T/C (second compound 30 µM, first compound 0.01 µM): 5.06%
